Test [1] in a line: Cell proliferation assay (ATPlite) in a panel of NF1 related cell lines. It is filed as cell-based, human and mouse. The conditions noted are these: 72 h; read-out: IC50 (concentration required for inhibition of cell proliferation by 50%). How it is done: Several physiologically relevant cells or cell lines were employed to measure compound potency in cell proliferation assays. These cells include: (1) NF1-deficient human malignant peripheral nerve sheath tumor (MPNST) cells, (2) Nf1^−/− mouse embryonic Schwann cells, and (3) Nf1- and p53-deficient mouse cell. […] All the other cells are grown in DMEM with 10% fetal bovine serum (FBS).
Various concentrations of each compound/agent to be tested were added to the growing media and the cells were then cultured for 3 days. […] Viable cells were measured by detecting luminescence generated from reaction of ATPlite solution and the ATP in the cells.
On the technique in general: ATP-based viability assays read luminescence as a measure of living cells.

In test [2] the test system is Fresh human dermal neurofibroma. Description: Ex vivo tumor explant assay, histological score. It is filed as cell-based. The note with it: compound added day 1, collected day 3, criterion “+” or more. The method, then: The efficacy of the compound/agent was tested in an ex vivo tumor explant model as follows. Fresh human dermal neurofibroma was cut into eight small pieces and cultured on standard cell culture plates with medium containing DMEM/F12, 10% FBS, heregulin and forskolin. The pieces were divided into treatment and control groups. Compound at different doses was added to the medium on day 1. No compound was added in the negative control group. All tumor pieces were collected on day 3 and processed for histology by formalin fixation and paraffin embedding. Tissue sections were cut and stained with hematoxylin-eosin for histological analysis. The histological analysis of the paired explant samples was conducted blindly. Three histological parameters were used to score the samples from “−” to “+++”: 1) overall tissue integrity; we evaluate tissue integrity by comparing the cellularity of treated samples to the negative control samples. The low cellularity area was defined as >30% less nucleus than the similar area on the control sample. The photograph of each sample at 40× under a bright field microscopy was take using MagnaFire digital camera (Optronics, USA) and stored in computer. The low cellularity areas in the pictures were measured using Photoshop and calculated as Length×Width, and then expressed as a percentage over the total area of the sample. Overall tissue integrity was scored using 0 to 2+ score. In short, good tissue integrity is scored 0 (<5%), 1+ indicates medium tissue integrity (5-25%), 2+ low tissue integrity (>25%). Only 2+ cases were regarded as positive “+” for the final total score; 2) cell death—slides were evaluated by bright field microscopy. At least 100 cells per view were counted. Cell death was scored semi-quantitatively using the 0 to 3+ score. The absence of condensed or fragmented nucleus is scored 0, 1+ indicates the lowest level of detectable cell death (<10%), 2+ moderate cell death ([…]), and 3+ high cell death (>30%). All 2+ and 3+ cases were regarded as positive “+” for the final total score; and 3) effect on vasculatures.—slides were evaluated by bright field microscopy. The effect on vasculature in treated samples was determined by comparing with the vasculatures in control negative samples. At least 20 vasculatures per sample were counted. Effect on vasculatures was scored semi-quantitatively using the […]. In short, absence or the lowest level of damaged vasculature is scored 0 (<5%), 1+ indicates of some damaged vasculature (5-25%), 2+ high (>25%). All 1+ and 2+ cases were regarded as positive “+” for the final total score. Final histological score was the sum of the scores of the above three parameters, expressed as “−” to “+++”. Any compound with a histological score of “+” or more will be potential good candidates for local treatment of neurofibromas.

In the next test the test system is cutaneous neurofibromas. Description: Proof-of-concept intralesional administration study in NF1 subjects. It counts as in vivo, human. The note with it: intralesional injection once weekly for 4 weeks, all controls showed no change. An excerpt:
The study was a proof-of-concept, prospective, safety and efficacy study of the effect of intralesionally administered drugs given once a week to 3 target cutaneous neurofibromas for 4 consecutive weeks. Six subjects were enrolled. […] All subjects were from 18 to 65 years of age, inclusive. All subjects otherwise were in good health, or had stable concomitant medical conditions appropriately managed by a primary care physician. […] After screening and enrollment, all subjects received a defined volume (based on the size of the lesion) of intralesional drug once weekly into 3 target cutaneous neurofibromas that are 0.5 to 1.5 cm in diameter, inclusive, in its largest dimension. Each target cutaneous neurofibroma was different in size, with one 0.5 to 0.8 cm in diameter, a second between 0.81 to 1.2 cm in diameter, and a third 1.21 to 1.5 cm in diameter. Concomitantly, three control cutaneous neurofibromas found on the torso and/or appendages of the same range in sizes received sterile normal saline. All lesions prior to injection were locally anesthetized with lidocaine 1% and epinephrine 1:100,000. […] Assessment included the exact measured dimensions (in two axes) of the […] assessed lesions. […]

Experimental findings from patent US8211875B2, “Local treatment of neurofibromas” (Nexgenix Pharmaceuticals Inc, priority 2005, dated 2012) are described below.

A value given as a limit tells only on which side of the number the result lay.

With `O=c1[nH]cc(F)c(=O)[nH]1` [5-fluorouracil], in test [1], the IC50 was not above 10 µM. In addition, in test [2], the “Final histological score (tissue integrity, cell death, effect on vasculatures)” value (from here on “Final histological score”) is reported as “+”.

Consider `C=CCNC1=C2C[C@@H](C)C[C@H](OC)[C@H](O)[C@@H](C)/C=C(\C)[C@H](OC(N)=O)[C@@H](OC)/C=C\C=C(/C)C(=O)NC(=CC1=O)C2=O` [17-AAG, 17-(Allylamino)-17-demethoxygeldanamycin], for which, in test [1], the IC50 was not above 10 µM. Moreover, the “Final histological score” value in test [2] is given as “+”.

For the compound `CC[C@@]1(O)C(=O)OCc2c1cc1n(c2=O)Cc2cc3ccccc3nc2-1` [Camptothecin], the IC50 in test [1] is not above 10 µM.

Take `Nc1nc(Cl)nc2c1ncn2[C@H]1C[C@H](O)[C@@H](CO)O1` [Cladribine]: in test [1], the IC50 is not above 10 µM.

On to `O=C([O-])Cc1ccccc1Nc1c(Cl)cccc1Cl.[Na+]` [Diclofenac], for which the “Final histological score” value in test [2] is given as “+”. In addition, in the test on cutaneous neurofibromas, the “tumors injected showing partial or complete elimination of the dermal neurofibroma” value is on record as 48%.

Regarding `C[C@H]1c2cccc(O)c2C(=O)C2=C(O)[C@]3(O)C(=O)C(C(N)=O)=C(O)[C@@H](N(C)C)[C@@H]3[C@@H](O)[C@@H]21.Cl` [Doxycycline], the IC50 in test [1] was not above 10 µM. The “tumors injected showing partial or complete elimination of the dermal neurofibroma” value in the test with cutaneous neurofibromas is 89%.

Regarding `O=C(O[C@@H]1Cc2c(O)cc(O)cc2O[C@@H]1c1cc(O)c(O)c(O)c1)c1cc(O)c(O)c(O)c1` [EGCG, (−)-Epigallocatechin Gallate], the IC50 in test [1] is not above 10 µM.

For `CC1=C(/C=C/C(C)=C/C=C/C(C)=C/C(=O)Nc2ccc(O)cc2)C(C)(C)CCC1` [Fenretinide], the IC50 in test [1] is not above 10 µM. For the same compound, the “Final histological score” value in test [2] was “+”.

On to `COc1cc2ncnc(N3CCN(C(=S)NCc4ccc5c(c4)OCO5)CC3)c2cc1OC` [KN2941, 4-(6.7-dimethoxy-4-quinazolinyl)-N-(3,4-methylenedioxybenzyl)-1-piperazinethiocarboxamide], for which the IC50 in test [1] is not above 10 µM.

As to `O=c1cc(N2CCOCC2)oc2c(-c3ccccc3)cccc12` [LY294002, 2-(4-Morpholinyl)-8-phenyl-4H-1-benzopyran-4-one], the IC50 in test [1] is not above 10 µM.

`COC(=O)Nc1nc2cc(C(=O)c3ccccc3)ccc2[nH]1` [Mebendazole]: the IC50 in test [1] is not above 10 µM. The “Final histological score” value in test [2] was “+”.

As for `COc1cc([C@@H]2c3cc4c(cc3[C@H](O)[C@H]3COC(=O)[C@H]23)OCO4)cc(OC)c1OC` [Podophyllotoxin], the IC50 in test [1] is not above 10 µM. In addition, in test [2], the “Final histological score” value is recorded as “+”.

With `CCN(CC)CCNC(=O)c1c(C)[nH]c(/C=C2\C(=O)Nc3ccc(Cl)cc32)c1C` [SU11652, 5-[(Z)-(5-Chloro-2-oxo-1,2-dihydro-3H-indol-3-ylidene)methyl]-N-[2-(diethylamino)ethyl]-2,4-dimethyl-1H-pyrrole-3-carboxamide], the IC50 in test [1] is not above 10 µM.

Regarding `NC(=O)c1cn([C@@H]2O[C@H](CO)C(O)C2O)c2ncnc(N)c12` (stereo partly shown) [Sangivamycin], the IC50 in test [1] was not above 10 µM. The “Final histological score” value in test [2] is on record as “+”.

`S=P(N1CC1)(N1CC1)N1CC1` [Thiotepa]: the IC50 in test [1] was not above 10 µM. For the same compound, the “Final histological score” value in test [2] is “+”.

With `CC(/C=C/C(=O)NO)=C\[C@@H](C)C(=O)c1ccc(N(C)C)cc1` [Tricostatin A], the IC50 in test [1] is not above 10 µM. Moreover, in test [2], the “Final histological score” value is reported as “+”.

As for `Nc1ncnc2c1ccn2[C@@H]1O[C@H](CO)[C@@H](O)[C@H]1O` [Tubercidin], the IC50 in test [1] was not above 10 µM. The “Final histological score” value in test [2] is reported as “+”.

For the compound `N#CC(=C(/N)Sc1ccccc1N)/C(C#N)=C(\N)Sc1ccccc1N` [U0126, 1,4-Diamino-2,3-dicyano-1,4-bis(2-aminophenylthio)-butadiene], the IC50 in test [1] was not above 10 µM.

For `CCCC(CCC)C(=O)O` [Valproic acid], the “Final histological score” value in test [2] is listed as “+”.

Consider `COc1cc(/C=C/C(=O)CC(=O)/C=C/c2ccc(O)c(OC)c2)ccc1O` [curcumin, Curcumin], for which the IC50 in test [1] was not above 10 µM.

In the case of `CCCCCCCCCCCCCCCCOP(=O)([O-])OCC[N+](C)(C)C` [miltefosine, Miltefosine], the IC50 in test [1] was not above 10 µM.

Take `C[C@@H]1C[C@H]2O[C@@H]2/C=C\C=C\C(=O)Cc2c(Cl)c(O)cc(O)c2C(=O)O1` [radicicol, Radicicol]: the IC50 in test [1] is not above 10 µM. Moreover, the “Final histological score” value in test [2] was “+”.

For `CO[C@H]1C[C@@H]2CC[C@@H](C)[C@@](O)(O2)C(=O)C(=O)N2CCCC[C@H]2C(=O)O[C@H]([C@H](C)C[C@@H]2CC[C@@H](O)[C@H](OC)C2)CC(=O)[C@H](C)/C=C(\C)[C@@H](O)[C@@H](OC)C(=O)[C@H](C)C[C@H](C)/C=C/C=C/C=C/1C` [rapamycin, Rapamycin], the IC50 in test [1] is not above 10 µM.

On to `CC1=C(/C=C/C(C)=C/C=C/C(C)=C/C(=O)O)C(C)(C)CCC1` [retinoic acid, 3,7-dimethyl-9-(2,6,6-trimethyl-1-cyclohexenyl)-nona-2,4,6,8-tetraenoic acid], for which the IC50 in test [1] is not above 10 µM.

Take Bleomycin: the “Final histological score” value in test [2] is listed as “+”.
